Source: patent US6734175B2, “Treatments for obesity and methods for identifiying compounds useful for treating obesity” (Pfizer Inc., priority 2000, dated 2004)

Legend:
melanocortin-4 receptors = biological target: T1, melanocortin-4 receptors (Homo sapiens, UniProt P32245); assay: [125I]AGRP competition binding assay; conditions: particularly melanocortin-4 receptors; qualitative statement
T1 construct: host or cells: membranes from unnamed cells expressing the receptor
From the text: (§1) The first radioligand binding assay is an [^125I]AGRP competition binding assay. Compounds that attenuate binding of [^125I]AGRP or AGRP would be detected in this assay. It is noted that compounds can attenuate the binding of AGRP to melanocortin 3 and/or 4 receptors by binding to melanocortin 3 and/or 4 receptors or by binding to AGRP itself. The second radioligand binding assay is an assay using radiolabeled melanocortin ligands, for example, [^125I]norleucine D-phenylalanine melanocyte stimulating hormone ([^125I]NDP-MSH). Membranes prepared from cells expressing either melanocortin 3 or 4 receptors are used in the radioligand binding assays. The preparation and use of [^125I]AGRP and [^125I]NDP-MSH is well known in the art. See, for example, Dang et al., Molecular Endocrinology, 13, 148-155 (1999). In addition, the preparation and use of membranes from cells expressing either melanocortin 3 or 4 receptors are also well known in the art. See, Bass, et al., Molecular Pharmacology, 50, 709-715 (1996).
[^125I] AGRP Competition Binding Assay
(§2) Specific Activity of [^125I]AGRP is 2200 Ci/mmole. The final concentration of [^125I]AGRP is 100 pM. Therefore, a 2 nM (20×) stock needs to be made in binding buffer. The concentration of [^125I]AGRP varies from 40-60 nM. [^125I]AGRP can be obtained from New England Nuclear, Boston, Mass.
(§3) The competition assay can be run using 96 well plates. […]

melanocortin receptors = assay: [125I]NDP-MSH competition binding assay; conditions: qualitative statement
From the text: as §1
[^125I]NDP-MSH Competition Binding Assay
as §2, with “of [^125I]NDP-MSH” for “of [^125I]AGRP”, “is 250” for “is 100”, “a 5” for “a 2”, “nM. [^125I]NDP-MSH” for “nM. [^125I]AGRP”
as §3

T1 sequence (P32245 whole entry): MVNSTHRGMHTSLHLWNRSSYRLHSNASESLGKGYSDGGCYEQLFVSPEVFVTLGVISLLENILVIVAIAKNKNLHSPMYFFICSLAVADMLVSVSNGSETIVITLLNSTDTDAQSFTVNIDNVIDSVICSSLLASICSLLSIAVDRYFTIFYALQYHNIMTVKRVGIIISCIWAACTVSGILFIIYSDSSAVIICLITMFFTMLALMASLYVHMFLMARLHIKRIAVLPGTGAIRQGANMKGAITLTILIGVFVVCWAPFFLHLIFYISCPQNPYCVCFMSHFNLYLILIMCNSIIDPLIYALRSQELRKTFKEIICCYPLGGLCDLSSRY

O=[N+]([O-])c1ccc(N2C3c4ccccc4CCN3N(c3ccc([N+](=O)[O-])cc3)C3c4ccccc4CCN32)cc1 (centres unmarked) [8,16-bis-(4-nitro-phenyl)-5,6,8,8a,13,14,16,16a-octahydro-[1,2,4,5]tetrazino[6,1-a;3,4-a′]diisoquinoline]
binding of agouti-related protein to melanocortin receptors (melanocortin-4 receptors): attenuates the binding of agouti-related protein to melanocortin receptors | binding of α-melanocyte stimulating hormone to melanocortin receptors (melanocortin receptors): does not attenuate the binding of α-melanocyte stimulating hormone to melanocortin receptors
